Measured values from ChEMBL document CHEMBL4196124, “Reverse Hydroxamate Inhibitors of Bone Morphogenetic Protein 1” (ACS Med Chem Lett, 2018).

What was measured:
Tolloid-like protein 1 = molecular target: T1, Tolloid-like protein 1 (Homo sapiens, UniProt O43897); experiment: Inhibition of recombinant human full length TLL1 using ((5-FAM)-ELIDQYDVQRDDSSDGSLED-K(5,6 TAMRA)-CONH2) as substrate preincubated for 10 mins followed by substrate addition measured after 60 mins
T1 sequence (O43897 whole entry): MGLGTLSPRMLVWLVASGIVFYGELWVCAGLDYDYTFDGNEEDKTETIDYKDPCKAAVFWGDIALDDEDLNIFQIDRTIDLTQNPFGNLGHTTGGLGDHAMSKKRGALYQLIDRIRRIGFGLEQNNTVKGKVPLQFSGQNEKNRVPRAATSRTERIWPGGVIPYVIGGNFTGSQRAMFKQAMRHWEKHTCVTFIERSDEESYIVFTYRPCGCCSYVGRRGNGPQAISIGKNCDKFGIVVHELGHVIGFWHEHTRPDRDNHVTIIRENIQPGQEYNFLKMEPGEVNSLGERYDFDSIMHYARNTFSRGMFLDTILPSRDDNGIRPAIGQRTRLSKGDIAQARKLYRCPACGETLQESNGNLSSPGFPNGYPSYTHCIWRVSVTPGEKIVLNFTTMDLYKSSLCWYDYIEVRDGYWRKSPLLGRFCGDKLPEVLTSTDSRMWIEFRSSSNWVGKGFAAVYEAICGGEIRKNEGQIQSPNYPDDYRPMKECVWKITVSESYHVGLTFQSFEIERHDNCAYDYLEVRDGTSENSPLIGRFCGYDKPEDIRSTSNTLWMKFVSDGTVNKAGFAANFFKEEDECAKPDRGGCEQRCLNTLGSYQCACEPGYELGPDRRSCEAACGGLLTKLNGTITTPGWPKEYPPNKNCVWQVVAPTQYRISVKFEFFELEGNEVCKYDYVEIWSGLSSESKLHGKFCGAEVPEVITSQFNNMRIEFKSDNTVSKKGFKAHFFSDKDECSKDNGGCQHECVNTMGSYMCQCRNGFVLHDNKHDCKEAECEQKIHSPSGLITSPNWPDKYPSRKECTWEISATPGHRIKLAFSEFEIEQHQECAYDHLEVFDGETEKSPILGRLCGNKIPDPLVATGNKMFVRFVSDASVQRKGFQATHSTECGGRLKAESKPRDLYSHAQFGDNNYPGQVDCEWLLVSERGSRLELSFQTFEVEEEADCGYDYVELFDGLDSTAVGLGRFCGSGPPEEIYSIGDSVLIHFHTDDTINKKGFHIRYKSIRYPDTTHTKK

Homo sapiens = organism: Homo sapiens; experiment: Selectivity ratio of IC50 for recombinant human C-terminal MMP12 (84 to 255 residues) catalytic domain expressed in Escherichia coli to IC50 for recombinant human N-terminal 6His/flag-tagged BMP1 (121 to 721 residues) expressed in CHO cells
[1] = molecular target: T2, Bone morphogenetic protein 1 (Homo sapiens, UniProt P13497); experiment: Inhibition of recombinant human N-terminal 6His/flag-tagged BMP1 (121 to 721 residues) expressed in CHO cells using ((5-FAM)-ELIDQYDVQRDDSSDGSLED-K(5,6 TAMRA)-CONH2) as substrate preincubated for 10 mins followed by substrate addition measured after 60 mins
T2 sequence (P13497 whole entry): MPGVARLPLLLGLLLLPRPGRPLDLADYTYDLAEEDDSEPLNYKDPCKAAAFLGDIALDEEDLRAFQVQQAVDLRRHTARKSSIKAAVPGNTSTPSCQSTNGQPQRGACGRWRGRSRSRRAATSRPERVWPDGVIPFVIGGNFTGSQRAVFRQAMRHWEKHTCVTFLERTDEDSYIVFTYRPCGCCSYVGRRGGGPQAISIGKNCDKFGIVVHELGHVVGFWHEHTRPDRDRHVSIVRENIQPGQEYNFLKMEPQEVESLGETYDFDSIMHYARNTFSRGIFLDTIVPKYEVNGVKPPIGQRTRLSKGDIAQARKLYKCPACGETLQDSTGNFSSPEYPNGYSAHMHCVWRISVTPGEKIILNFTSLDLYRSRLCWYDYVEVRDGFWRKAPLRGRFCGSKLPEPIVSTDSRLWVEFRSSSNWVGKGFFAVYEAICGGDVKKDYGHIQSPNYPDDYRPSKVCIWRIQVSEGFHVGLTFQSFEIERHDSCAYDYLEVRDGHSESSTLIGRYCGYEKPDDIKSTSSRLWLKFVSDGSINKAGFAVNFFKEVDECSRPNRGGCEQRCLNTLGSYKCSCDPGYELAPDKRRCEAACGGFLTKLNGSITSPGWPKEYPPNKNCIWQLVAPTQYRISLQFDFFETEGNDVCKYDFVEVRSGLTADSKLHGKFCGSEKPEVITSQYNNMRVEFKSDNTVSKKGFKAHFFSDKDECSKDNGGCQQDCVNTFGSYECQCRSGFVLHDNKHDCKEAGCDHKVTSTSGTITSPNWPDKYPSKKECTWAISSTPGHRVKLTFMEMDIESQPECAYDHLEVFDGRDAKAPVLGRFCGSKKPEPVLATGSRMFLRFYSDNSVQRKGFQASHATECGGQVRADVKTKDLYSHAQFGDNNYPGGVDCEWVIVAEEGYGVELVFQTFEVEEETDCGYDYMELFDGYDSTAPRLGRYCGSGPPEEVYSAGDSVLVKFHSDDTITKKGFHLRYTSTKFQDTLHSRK

CCCCC[C@@H](C(=O)NCNC(=O)c1ccc(-c2ccccc2)o1)[C@@H](CC)N(O)C=O
IC50 (Tolloid-like protein 1): 100 nM
Ratio IC50 (Homo sapiens): > 30
IC50 [1]: 32 nM
